Measurements published in patent US20150258129A1, “Method for Increasing the Activity of Lysosomal Enzymes” (Mount Sinai School of Medicine of New York University, priority 1998, published 2015).
Substitutions are numbered along the chain they refer to. Like-named read-outs stand apart in the source and are kept apart here. One block for each compound: values may come before it.

Assays:
human lysosomal α-Gal A = biological target: T1, human lysosomal α-Gal A (Homo sapiens, UniProt P06280); assay: In vitro inhibition of α-Gal A (recombinant, expressed in Sf-9 insect cells); type: biochemical; details: for reduction of inhibitory potential / affinity for α-Gal A relative to DGJ: compared with DGJ; for Ki / IC50: p-nitrophenyl-α-D-galactopyranoside as substrate; for Ki: read-out: Ki for α-Gal A, from the slope of Lineweaver-Burk plots; for IC50: pH 4.5
T1 construct: made in house; host or cells: Sf-9 insect cells, recombinant baculovirus
T1 sequence (P06280 32-429): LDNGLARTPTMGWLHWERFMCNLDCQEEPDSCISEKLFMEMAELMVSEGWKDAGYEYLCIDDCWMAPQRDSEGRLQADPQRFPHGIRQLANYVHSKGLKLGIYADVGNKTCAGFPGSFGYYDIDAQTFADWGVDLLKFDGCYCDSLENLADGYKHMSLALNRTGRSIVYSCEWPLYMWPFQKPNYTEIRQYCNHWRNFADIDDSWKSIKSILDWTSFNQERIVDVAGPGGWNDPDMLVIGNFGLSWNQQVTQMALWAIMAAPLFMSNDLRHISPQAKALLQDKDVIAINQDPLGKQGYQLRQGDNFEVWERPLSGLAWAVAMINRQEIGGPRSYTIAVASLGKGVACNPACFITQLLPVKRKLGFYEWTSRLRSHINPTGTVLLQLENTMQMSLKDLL

[1] = biological target: human β-glucocerebrosidase (Homo sapiens, UniProt P04062); assay: In vitro inhibition of human β-glucocerebrosidase; type: biochemical; details: for IC50: 0.1M citrate buffer (pH 5.2), 4-MU-β-Glu as substrate
human β-glucocerebrosidase, sequence (P04062 40-536): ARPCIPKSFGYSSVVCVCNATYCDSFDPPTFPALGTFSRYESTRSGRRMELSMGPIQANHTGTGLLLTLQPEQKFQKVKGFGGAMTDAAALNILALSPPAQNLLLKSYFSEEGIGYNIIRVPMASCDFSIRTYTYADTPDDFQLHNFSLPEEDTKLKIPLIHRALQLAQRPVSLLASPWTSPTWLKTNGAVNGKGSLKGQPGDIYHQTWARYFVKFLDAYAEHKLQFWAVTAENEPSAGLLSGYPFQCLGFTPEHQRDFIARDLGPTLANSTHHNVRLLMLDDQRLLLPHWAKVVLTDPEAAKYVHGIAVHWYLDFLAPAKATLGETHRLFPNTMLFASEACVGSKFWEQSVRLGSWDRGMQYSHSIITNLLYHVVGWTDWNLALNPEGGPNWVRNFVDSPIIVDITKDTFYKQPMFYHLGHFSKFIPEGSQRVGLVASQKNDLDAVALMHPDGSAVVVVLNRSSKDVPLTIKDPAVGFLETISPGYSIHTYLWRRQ

[2] = biological target: T2, glucocerebrosidase (β-Glu), N370S/N370S (Homo sapiens, UniProt P04062, N409S); assay: Intracellular enhancement of β-Glu activity in Gaucher fibroblasts (N370S/N370S); type: cell-based; details: for intracellular β-Glu activity in Gaucher fibroblasts (summary): concentration ranges of 0.05-100 μM
T2 construct: endogenous in cells; host or cells: human Gaucher patient fibroblasts, genotype N370S/N370S
T2 sequence (P04062 40-536 N409S): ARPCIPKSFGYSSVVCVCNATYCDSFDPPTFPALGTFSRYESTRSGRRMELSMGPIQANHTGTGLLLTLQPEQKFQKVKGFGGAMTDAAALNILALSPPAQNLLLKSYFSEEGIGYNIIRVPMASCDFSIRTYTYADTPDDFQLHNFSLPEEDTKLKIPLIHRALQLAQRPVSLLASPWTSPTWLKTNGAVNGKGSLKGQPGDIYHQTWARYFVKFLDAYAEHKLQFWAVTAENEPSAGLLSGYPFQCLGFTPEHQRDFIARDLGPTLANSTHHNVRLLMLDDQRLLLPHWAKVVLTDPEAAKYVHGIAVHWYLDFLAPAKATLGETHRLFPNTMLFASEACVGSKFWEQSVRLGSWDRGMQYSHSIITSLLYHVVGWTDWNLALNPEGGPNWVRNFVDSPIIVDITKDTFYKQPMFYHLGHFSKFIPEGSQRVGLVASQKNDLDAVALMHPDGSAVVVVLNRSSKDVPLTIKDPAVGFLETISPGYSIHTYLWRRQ

mutant α-Gal A (R301Q) = biological target: T3, mutant α-Gal A (R301Q) (Homo sapiens, UniProt P06280, R301Q); assay: Intracellular enhancement of α-Gal A activity in Fabry lymphoblasts; type: cell-based; parameters: endogenous in cells; host or cells: Epstein-Barr virus-transformed lymphoblasts from a Fabry patient (R301Q); details: for intracellular α-Gal A activity in Fabry lymphoblasts (summary): concentration ranges of 10-1000 μM; for α-Gal A activity in R301Q lymphoblasts with increasing concentration of calystegine compound: range 100-1000 μM, FIG. 6; for α-Gal A activity in R301Q lymphoblasts with increasing concentration of calystegine compound / increase of α-Gal A enzyme activity in R301Q lymphoblasts / enhancement of α-Gal A activity in R301Q lymphoblasts: 4 days; for increase of α-Gal A enzyme activity in R301Q lymphoblasts: inhibitor at 100 μM; for enhancement of α-Gal A activity in R301Q lymphoblasts: inhibitor at 1000 μM
T3 sequence (P06280 32-429 R301Q): T1 sequence (P06280 32-429) with R270Q
Protocol: FIG. 4B depicts results in which each inhibitor was added to the culture medium of R301Q lymphoblasts at a concentration of 100 μM. Cells were subsequently incubated for 4 days. After being washed twice with phosphate-buffered saline, the intracellular enzyme activity was determined with 4-MU-α-Gal as the substrate.
R301Q lymphoblasts were cultured with DGJ (4) ([…]), α-allo-HNJ (9) (▪), α-galacto-HNJ (10) (▴), or β-1-C-butyl-DGJ (16) (♦) at 1-1000 μM for 4 days before being collected for enzyme assay.
In FIG. 6B, R301Q lymphoblasts were cultured with calystegine B2 (18) and the results are shown therein. In FIG. 6C, R301Q lymphoblasts were cultured with N-methyl calystegine A3 (19) and the results are shown therein. In FIG. 6D R301Q lymphoblasts were cultured with N-methyl calystegine B2 (20) at 100-1000 μM for 4 days before being collected for enzyme assay and the results are shown therein.
The Epstein-Barr virus-transformed lymphoblast lines from a normal adult and a Fabry patient with R301Q mutation in α-Gal A (38) were cultured in RPMI-1640 medium (Nissui Pharmaceutical Co., Tokyo, Japan) supplemented with 10% fetal calf serum (FCS) at 37° C. under 5% CO2. Human fibroblasts from Gaucher and GM1-gangliosidosis patients were cultured in McCoy 5A medium supplemented with 10% FCS at 37° C. under 5% CO2.
Cells were cultured in the presence or absence of inhibitor for 4 days. After being washed twice with phosphate-buffered saline (PBS), the cells were harvested and homogenized in 200 μl of H2O, and 10 μl of the supernatant obtained by centrifugation at 10,000 g was incubated at 37° C. with 50 μl of the substrate solution composed by 6 mM 4-methylumbelliferyl α-D-galactoside (4-MU-α-Gal) and 90 mM N-acetylgalactosamine in 0.1 M citrate buffer (pH 4.5) for enzyme assay. One unit of intracellular enzyme activity was defined as one nmol of 4-methylumbelliferone released per hour at 37° C.

[3] = N370S/N370S, compound at 10 μM, 5 days
[4] = N370S/N370S, compound at 100 μM, 5 days
[5] = read-out: IC30 and (Ki)*: IC50 values (inhibitor concentration giving 50% inhibition) for α-Gal A
[6] = IC30 and (Ki)*: IC50 values (inhibitor concentration giving 50% inhibition) for α-Gal A

Compound: OCC1NCC(O)C(O)C1O (stereo not drawn) [compound 3, 1-Deoxy-3-epi-nojirimycin]
- inhibition of α-Gal A (in words) (human lysosomal α-Gal A): no appreciable inhibition even at 1000 μM

Compound: OC1CC2(O)NC1C(O)C(O)C2O (stereo not drawn) [compound 26, calystegine C1]
- IC50 [1]: 2.5 µM
- intracellular β-Glu activity in Gaucher fibroblasts (summary) [2]: effectively enhance

Compound: DNJ bisulfite [compound 32]
- IC50 [1]: 28 µM

Compound: OCC1CN(CCCc2ccccc2)CC(O)C1O (stereo not drawn) [compound 36, N-(3-phenylpropyl)-isofagomine]
- IC50 [1]: 69 µM
- elevation of residual β-Glu activity in Gaucher cells [2, 3]: 50%
- elevation of residual β-Glu activity in Gaucher cells [2, 4]: 54%
- intracellular β-Glu activity in Gaucher fibroblasts (summary) [2]: effectively enhance

Compound: CN1C2CCC1(O)C(O)C(O)C2O (stereo not drawn) [compound 20, N-methyl calystegine B2]
- IC50 [1]: 320 µM
- intracellular α-Gal A activity in Fabry lymphoblasts (summary) (mutant α-Gal A (R301Q)): effectively increase
- α-Gal A activity in R301Q lymphoblasts with increasing concentration of calystegine compound (mutant α-Gal A (R301Q)): elevated with increasing concentration

Compound: O[C@@H]1[C@H](O)[C@H]2CC[C@](O)(N2)[C@H]1O [compound 25, calystegine B4]
- IC50 [1]: 82 µM

Compound: OCC1NCC(O)C(O)C1O (stereo not drawn) [compound 2, 1-Deoxymannojirimycin]
- inhibition of α-Gal A (in words) (human lysosomal α-Gal A): no appreciable inhibition even at 1000 μM

Compound: O[C@@H]1[C@@H](O)C[C@]2(O)CC[C@H]1N2 [compound 22, calystegine A5]
- IC50 [1]: 31 µM

Compound: O[C@@H]1C[C@]2(O)N[C@H]1C[C@@H](O)[C@@H]2O [compound 23, calystegine B1]
- IC50 [1]: 2.5 µM
- intracellular β-Glu activity in Gaucher fibroblasts (summary) [2]: effectively enhance

Compound: CCCCN1C[C@H](CO)[C@@H](O)[C@H](O)C1 [compound 34, N-Butyl-isofagomine]
- IC50 [1]: 44 µM
- elevation of residual β-Glu activity in Gaucher cells [2, 3]: 73%
- elevation of residual β-Glu activity in Gaucher cells [2, 4]: 56%
- intracellular β-Glu activity in Gaucher fibroblasts (summary) [2]: effectively enhance

Compound: O[C@@H]1[C@@H](O)[C@H]2CC[C@](O)(N2)[C@@H]1O [compound 24, calystegine B3]
- IC50 [1]: 76 µM

Compound: CN1C2CCC1(O)C(O)C(O)C2 (stereo not drawn) [compound 19, N-methyl calystegine A3]
- intracellular α-Gal A activity in Fabry lymphoblasts (summary) (mutant α-Gal A (R301Q)): effectively increase
- α-Gal A activity in R301Q lymphoblasts with increasing concentration of calystegine compound (mutant α-Gal A (R301Q)): elevated with increasing concentration

Compound: OC[C@H]1NC[C@H](O)[C@H](O)[C@H]1O [compound 5, 1-deoxy-3,4-diepi-nojirimycin]
- inhibition of α-Gal A (in words) (human lysosomal α-Gal A): no appreciable inhibition even at 1000 μM

Results, then the compound that gave them:

- IC50 [1]: 100 µM
- elevation of residual β-Glu activity in Gaucher cells [2, 3]: 106%
- elevation of residual β-Glu activity in Gaucher cells [2, 4]: 47%
- intracellular β-Glu activity in Gaucher fibroblasts (summary) [2]: effectively enhance
Compound: OCC1CN(CCCC2CCCCC2)CC(O)C1O (stereo not drawn) [compound 35, N-(3-cyclohexylpropyl)-isofagomine]

- inhibition mode toward α-Gal A (Lineweaver-Burk plots) (human lysosomal α-Gal A): competitive inhibitors
- reduction of inhibitory potential / affinity for α-Gal A relative to DGJ (human lysosomal α-Gal A): approximately 4 fold
- Ki (human lysosomal α-Gal A): 0.17 µM
- IC50 (human lysosomal α-Gal A; [5]): 0.21 µM
- intracellular α-Gal A activity in Fabry lymphoblasts (summary) (mutant α-Gal A (R301Q)): effectively increase
- increase of α-Gal A enzyme activity in R301Q lymphoblasts (mutant α-Gal A (R301Q)): 5.2 fold
- enhancement of α-Gal A activity in R301Q lymphoblasts (mutant α-Gal A (R301Q)): 12.5 fold
Compound: OC[C@H]1N[C@H](CO)[C@H](O)C(O)[C@H]1O (stereo partly drawn) [compound 10, α-Homogalactonojirimycin]

- IC50 (human lysosomal α-Gal A; [6]): 306 µM
Compound: CCN1CC(O)C(O)C(O)C1CO (stereo not drawn) [compound 12, N-Ethyl-1-deoxygalactonojirimycin]

- inhibition of α-Gal A (in words) (human lysosomal α-Gal A): not an inhibitor
- IC50 (human lysosomal α-Gal A; [6]): > 1000 µM
Compound: OCC1NC(CO)C(O)C(O)C1O (stereo not drawn) [compound 7, α-Homonojirimycin]

- IC50 (human lysosomal α-Gal A; [6]): 96 µM
Compound: CN1CC(O)C(O)C(O)C1CO (stereo not drawn) [compound 11, N-Methyl-1-deoxygalactonojirimycin]

- IC50 (human lysosomal α-Gal A; [6]): 301 µM
Compound: CCCN1CC(O)C(O)C(O)C1CO (stereo not drawn) [compound 13, N-Propyl-1-deoxygalactonojirimycin]

- IC50 (human lysosomal α-Gal A; [6]): 520 µM
Compound: OCCN1CC(O)C(O)C(O)C1CO (stereo not drawn) [compound 15, N-Hydroxyethyl-1-deoxygalactonojirimycin]

- inhibition mode toward α-Gal A (Lineweaver-Burk plots) (human lysosomal α-Gal A): competitive inhibitors
- Ki (human lysosomal α-Gal A): 2.6 µM
- IC50 (human lysosomal α-Gal A; [5]): 4.3 µM
- intracellular α-Gal A activity in Fabry lymphoblasts (summary) (mutant α-Gal A (R301Q)): effectively increase
- increase of α-Gal A enzyme activity in R301Q lymphoblasts (mutant α-Gal A (R301Q)): 2.4 fold
- enhancement of α-Gal A activity in R301Q lymphoblasts (mutant α-Gal A (R301Q)): 3.9 fold
Compound: OC[C@H]1N[C@H](CO)[C@@H](O)C(O)[C@H]1O (stereo partly drawn) [compound 9, α-homoallonojirimycin]

- IC50 (human lysosomal α-Gal A; [6]): 250 µM
- reduction of inhibitory potential / affinity for α-Gal A relative to DGJ (human lysosomal α-Gal A): over 6000 fold
Compound: OCC1NCCC(O)C1O (stereo not drawn) [compound 6, 1,2-dideoxy-galactonojirimycin]

- inhibition of α-Gal A (in words) (human lysosomal α-Gal A): weak inhibitor
- IC50 (human lysosomal α-Gal A; [6]): 464 µM
Compound: OCC1NC(CO)C(O)C(O)C1O (stereo not drawn) [compound 8, α-homomannojirimycin]

- IC50 [1]: 1.5 µM
- increase in potency against β-Glu compared with the 4 carbon chain compound ([1]; compared with compound 32 (so in the source)): 30 fold
- elevation of residual β-Glu activity in Gaucher cells [2, 3]: 43%
- decrease of residual β-Glu activity in Gaucher cells [2, 4]: 53%
- intracellular β-Glu activity in Gaucher fibroblasts (summary) [2]: effectively enhance
Compound: CC(C)=CCC/C(C)=C\CC/C(C)=C/CN1CC(O)C(O)C(CO)C1 (stereo not drawn) [compound 37, N-[(2E,6Z,10Z)-3,7,11-trimethyldodecatrienyl]-isofagomine]

- IC50 [1]: 160 µM
Compound: OC[C@H]1NC[C@@H](O)[C@@H]1O [compound 28, 1,4-dideoxy-1,4-imino-D-arabinitol]
